Tests used:
[1] = tested on: Akt phosphorylation in Panc-1 cells; test: Western AKT cell-based phosphorylation assay; set-up: species or system human; conditions: at 10 μM, values in brackets < > are activation %, not inhibition
Summary of the method: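 Panc-1 cells starved overnight in 0.5% FBS, exposed to compound at 10 μM (0.3% DMSO) for 6 h at 37° C, then stimulated with 1.5 ng/ml EGF for 15 min. Lysates probed by western blot with anti-phospho-Akt (Ser473), equal protein loading checked by Ponceau S.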

[2] = tested on: ERK1/2 phosphorylation in Panc-1 cells; test: Western ERK1/2 cell-based phosphorylation assay; set-up: species or system human; conditions: at 10 μM, values in brackets < > are activation %, not inhibition
Summary of the method: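 Panc-1 cells starved overnight in 0.5% FBS, then exposed 6 h at 37 °C to compound at 10 μM final (0.3% DMSO) or serial dilutions for IC50. Stimulation with 1.5 ng/ml EGF for 15 min; phospho-ERK1/2 (Thr202/Tyr204) read by western blot on equal protein loads.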

[3] = tested on: MIA-PaCa-2 pancreatic cancer cell line (KRAS G12C); test: Cell proliferation assay (CellTiter 96 Aqueous One); type: cell-based; conditions: Homo sapiens; for IC50: MIA PaCa-2, MIA PaCa-2; for inhibition at 10 µM: MIA PaCa-2, read-out: % inh cell proliferation (10 μM) in MIA PaCa-2
Summary of the method: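 Read-out is MTS-based viability (CellTiter 96 Aqueous One) after 2–4 days of compound exposure at 37 °C in 10% FBS with 0.3% DMSO.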

| SMILES | IC50 [3] [µM] | % inh of AKT phosphorylation in PANC-1 [1] | % inh of ERK1/2 phosphorylation in PANC-1 [2] | inhibition at 10 µM [3] [%] |
| --- | --- | --- | --- | --- |
| Cc1c(-c2ccn(C(C)C)n2)sc2nc(-c3nccn3C)nc(NCCc3nnn[nH]3)c12 [Compound 46, N-(2-(1H-Tetrazol-5-yl)ethyl)-6-(1-isopropyl-1H-pyrazol-3-yl)-5-methyl-2-(1-methyl-1H-imidazol-2-yl)thieno[2,3-d]pyrimidin-4-amine] | > 10 | A (1-25% inhibition) | 0 (0% inhibition) | 1 to 25 |
| CO[C@@H]1CCCN(c2nc(-c3nccn3C)nc3sc(-c4ccn(C(C)C)n4)c(C)c23)C1 [Compound 50, (R)-6-(1-Isopropyl-1H-pyrazol-3-yl)-4-(3-methoxypiperidin-1-yl)-5-methyl-2-(1-methyl-1H-imidazol-2-yl)thieno[2,3-d]pyrimidine] | – | D (76-100% inhibition) | D (76-100% inhibition) | 76 to 100 |
| Cc1c(-c2ccn(C(C)C)n2)sc2nc(-c3nccn3C)nc(NC[C@@H]3CCC(=O)N3)c12 [Compound 51] | > 10 | 0 (0% inhibition) | 0 (0% inhibition) | 0 |
| Cc1c(-c2ccn(C(C)C)n2)sc2nc(-c3nccn3C)nc(NC[C@H]3CCC(=O)N3)c12 [Compound 52, (R)-5-(((6-(1-Isopropyl-1H-pyrazol-3-yl)-5-methyl-2-(1-methyl-1H-imidazol-2-yl)thieno[2,3-d]pyrimidin-4-yl)amino)methyl)pyrrolidin-2-one] | > 10 | 0 (0% inhibition) | 0 (0% inhibition) | 1 to 25 |
| Cc1c(-c2ccn(C(C)C)n2)sc2nc(-c3nccn3C)nc(NCCc3ncc[nH]3)c12 [Compound 53, N-(2-(1H-Imidazol-2-yl)ethyl)-6-(1-isopropyl-1H-pyrazol-3-yl)-5-methyl-2-(1-methyl-1H-imidazol-2-yl)thieno[2,3-d]pyrimidin-4-amine] | 5 to 10 | 0 (0% inhibition) | 0 (0% inhibition) | 76 to 100 |
| Cc1c(-c2ccn(C(C)C)n2)sc2nc(-c3nccn3C)nc(NCc3ncc[nH]3)c12 [Compound 57, N-((1H-Imidazol-2-yl)methyl)-6-(1-isopropyl-1H-pyrazol-3-yl)-5-methyl-2-(1-methyl-1H-imidazol-2-yl)thieno[2,3-d]pyrimidin-4-amine] | 5 to 10 | 0 (0% inhibition) | A (1-25% inhibition) | 51 to 75 |
| Cc1c(-c2ccn(C(C)C)n2)sc2nc(-c3nccn3C)nc(NCCc3cn(C)cn3)c12 [Compound 58, 6-(1-Isopropyl-1H-pyrazol-3-yl)-5-methyl-2-(1-methyl-1H-imidazol-2-yl)-N-(2-(1-methyl-1H-imidazol-4-yl)ethyl)thieno[2,3-d]pyrimidin-4-amine] | 5 to 10 | 0 (0% inhibition) | A (1-25% inhibition) | 76 to 100 |
| Cc1c(-c2ccn(C(C)C)n2)sc2nc(-c3nccn3C)nc(NCc3c[nH]cn3)c12 [Compound 59, N-((1H-Imidazol-4-yl)methyl)-6-(1-isopropyl-1H-pyrazol-3-yl)-5-methyl-2-(1-methyl-1H-imidazol-2-yl)thieno[2,3-d]pyrimidin-4-amine] | 5 to 10 | 0 (0% inhibition) | 0 (0% inhibition) | 51 to 75 |

Further lines, with some results ahead:

| IC50 [3] [µM] | SMILES | % inh of AKT phosphorylation in PANC-1 [1] | % inh of ERK1/2 phosphorylation in PANC-1 [2] | inhibition at 10 µM [3] [%] |
| --- | --- | --- | --- | --- |
| < 1 | CO[C@@H]1CC[C@H](Nc2nc(-c3nccn3C)nc3sc(-c4ccn(C(C)C)n4)c(C)c23)C1 [Compound 31, 6-(1-Isopropyl-1H-pyrazol-3-yl)-N-((1S,3R)-3-methoxycyclopentyl)-5-methyl-2-(1-methyl-1H-imidazol-2-yl)thieno[2,3-d]pyrimidin-4-amine] | 0 (0% inhibition) | D (76-100% inhibition) | 76 to 100 |
| < 1 | CO[C@H]1CC[C@@H](Nc2nc(-c3nccn3C)nc3sc(-c4ccn(C(C)C)n4)c(C)c23)C1 [Compound 32, 6-(1-Isopropyl-1H-pyrazol-3-yl)-N-((1R,3S)-3-methoxycyclopentyl)-5-methyl-2-(1-methyl-1H-imidazol-2-yl)thieno[2,3-d]pyrimidin-4-amine] | 0 (0% inhibition) | D (76-100% inhibition) | 76 to 100 |
| 5 to 10 | COCCNc1nc(-c2nccn2C)nc2sc(-c3ccn(C(C)C)n3)c(C)c12 [Compound 35, 6-(1-Isopropyl-1H-pyrazol-3-yl)-N-(2-methoxyethyl)-5-methyl-2-(1-methyl-1H-imidazol-2-yl)thieno[2,3-d]pyrimidin-4-amine] | 0 (0% inhibition) | 0 (0% inhibition) | 76 to 100 |
| < 1 | COCCCNc1nc(-c2nccn2C)nc2sc(-c3ccn(C(C)C)n3)c(C)c12 [Compound 36, 6-(1-Isopropyl-1H-pyrazol-3-yl)-N-(3-methoxypropyl)-5-methyl-2-(1-methyl-1H-imidazol-2-yl)thieno[2,3-d]pyrimidin-4-amine] | 0 (0% inhibition) | C (51-75% inhibition) | 76 to 100 |
| 5 to 10 | CO[C@H]1CN(c2nc(-c3nccn3C)nc3sc(-c4ccn(C(C)C)n4)c(C)c23)C[C@H]1OC [Compound 39, rac-4-((3S,4R)-3,4-Dimethoxypyrrolidin-1-yl)-6-(1-isopropyl-1H-pyrazol-3-yl)-5-methyl-2-(1-methyl-1H-imidazol-2-yl)thieno[2,3-d]pyrimidine] | <B> | 0 (0% inhibition) | 76 to 100 |
| 5 to 10 | CO[C@H]1C[C@@H](Nc2nc(-c3nccn3C)nc3sc(-c4ccn(C(C)C)n4)c(C)c23)C[C@H]1OC [Compound 42, N-((1r,3R,4S)-3,4-Dimethoxycyclopentyl)-6-(1-isopropyl-1H-pyrazol-3-yl)-5-methyl-2-(1-methyl-1H-imidazol-2-yl)thieno[2,3-d]pyrimidin-4-amine] | <D> | B (26-50% inhibition) | 51 to 75 |
| 5 to 10 | CO[C@H]1C[C@H](Nc2nc(-c3nccn3C)nc3sc(-c4ccn(C(C)C)n4)c(C)c23)C[C@H]1OC [Compound 43, N-((1s,3R,4S)-3,4-Dimethoxycyclopentyl)-6-(1-isopropyl-1H-pyrazol-3-yl)-5-methyl-2-(1-methyl-1H-imidazol-2-yl)thieno[2,3-d]pyrimidin-4-amine] | <D> | B (26-50% inhibition) | 51 to 75 |
| < 1 | CO[C@H]1C[C@@H](CNc2nc(-c3nccn3C)nc3sc(-c4ccn(C(C)C)n4)c(C)c23)C1 [Compound 47, 6-(1-Isopropyl-1H-pyrazol-3-yl)-N-(((1s,3s)-3-methoxycyclobutyl)methyl)-5-methyl-2-(1-methyl-1H-imidazol-2-yl)thieno[2,3-d]pyrimidin-4-amine] | 0 (0% inhibition) | D (76-100% inhibition) | 76 to 100 |
| < 1 | CO[C@H]1C[C@H](CNc2nc(-c3nccn3C)nc3sc(-c4ccn(C(C)C)n4)c(C)c23)C1 [Compound 48, 6-(1-Isopropyl-1H-pyrazol-3-yl)-N-(((1r,3r)-3-methoxycyclobutyl)methyl)-5-methyl-2-(1-methyl-1H-imidazol-2-yl)thieno[2,3-d]pyrimidin-4-amine] | 0 (0% inhibition) | D (76-100% inhibition) | 76 to 100 |
| 5 to 10 | CO[C@H]1CCCN(c2nc(-c3nccn3C)nc3sc(-c4ccn(C(C)C)n4)c(C)c23)C1 [Compound 49, (S)-6-(1-Isopropyl-1H-pyrazol-3-yl)-4-(3-methoxypiperidin-1-yl)-5-methyl-2-(1-methyl-1H-imidazol-2-yl)thieno[2,3-d]pyrimidine] | D (76-100% inhibition) | D (76-100% inhibition) | 76 to 100 |
| < 1 | CO[C@H]1CC[C@H](Nc2nc(-c3nccn3C)nc3sc(-c4ccn(C(C)C)n4)c(C)c23)CC1 [Compound 54] | <A> | D (76-100% inhibition) | 76 to 100 |
| < 1 | CO[C@H]1CC[C@@H](Nc2nc(-c3nccn3C)nc3sc(-c4ccn(C(C)C)n4)c(C)c23)CC1 [Compound 55] | <A> | D (76-100% inhibition) | 76 to 100 |

— patent publication US20230227466A1, “SUBSTITUTED THIENOPYRIMIDINES THAT INTERACT WITH THE RAS SUPERFAMILY FOR THE TREATMENT OF CANCERS, INFLAMMATORY DISEASES, RASOPATHIES, AND FIBROTIC DISEASE” (SHY Therapeutics, LLC, priority 2020, published 2023)
